The values that follow come from PMC11582573, “An evolutionarily conserved metabolite inhibits biofilm formation in Escherichia coli K-12” (Nature Communications, 2024).

Each structure is given as a SMILES string.

One assay addresses T1, H-NS (Escherichia coli, UniProt P0ACF8).
T1 construct: gene hns
T1 sequence (P0ACF8 2-137): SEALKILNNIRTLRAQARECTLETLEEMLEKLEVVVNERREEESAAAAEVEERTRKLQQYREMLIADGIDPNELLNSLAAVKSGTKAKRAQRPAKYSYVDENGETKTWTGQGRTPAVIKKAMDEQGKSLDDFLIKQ
The assay is described as follows: microscale thermophoresis. As to conditions: read-out: binding affinity. (In general: In MST a laser heats a spot of the sample, and binding alters the fluorescence response.)

The target in assay [1] is T2, IspG (Escherichia coli, UniProt P62620).
T2 sequence (P62620 1-372): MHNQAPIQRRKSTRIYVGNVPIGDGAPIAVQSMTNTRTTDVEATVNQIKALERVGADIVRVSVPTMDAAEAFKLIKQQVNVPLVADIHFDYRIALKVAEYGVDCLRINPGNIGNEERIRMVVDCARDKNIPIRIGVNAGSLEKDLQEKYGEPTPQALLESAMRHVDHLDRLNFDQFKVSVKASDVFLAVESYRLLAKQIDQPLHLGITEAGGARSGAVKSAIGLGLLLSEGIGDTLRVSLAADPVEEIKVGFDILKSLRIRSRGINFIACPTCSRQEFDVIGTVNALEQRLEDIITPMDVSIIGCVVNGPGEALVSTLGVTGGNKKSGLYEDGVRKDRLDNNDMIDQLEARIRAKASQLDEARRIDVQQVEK
Kind of assay: microscale thermophoresis. As to conditions: read-out: binding affinity.

Assay [2] concerns the target T2, IspG. The assay is described as follows: protein thermal shift assay. In kind it is binding. As to conditions: 200 µM HMBPP, 2 µM protein, 25 mM MOPS pH 7.5, 50 mM NaCl.

On to `C[C@@]1(CO)OP(=O)(O)OP(=O)(O)OC[C@H]1O` [MEcPP], for which the Kd was 6.46 ± 2.17 µM at H-NS and 29.4 ± 10 µM at IspG [1]. With `C/C(=C\COP(=O)(O)OP(=O)(O)O)CO` [HMBPP], the “shift in the melting temperature” value on IspG [2] is “MEcPP and HMBPP, two known IspG binding metabolites, effectively changed the melting temperature of IspG”.
